The target in the test is T1, Recombinant human Chk1 (GST-Chk1) (Homo sapiens, UniProt O14757).
T1 construct: made in house; host or cells: insect cells (baculovirus, Bac-to-Bac system)
T1 sequence (O14757 1-476): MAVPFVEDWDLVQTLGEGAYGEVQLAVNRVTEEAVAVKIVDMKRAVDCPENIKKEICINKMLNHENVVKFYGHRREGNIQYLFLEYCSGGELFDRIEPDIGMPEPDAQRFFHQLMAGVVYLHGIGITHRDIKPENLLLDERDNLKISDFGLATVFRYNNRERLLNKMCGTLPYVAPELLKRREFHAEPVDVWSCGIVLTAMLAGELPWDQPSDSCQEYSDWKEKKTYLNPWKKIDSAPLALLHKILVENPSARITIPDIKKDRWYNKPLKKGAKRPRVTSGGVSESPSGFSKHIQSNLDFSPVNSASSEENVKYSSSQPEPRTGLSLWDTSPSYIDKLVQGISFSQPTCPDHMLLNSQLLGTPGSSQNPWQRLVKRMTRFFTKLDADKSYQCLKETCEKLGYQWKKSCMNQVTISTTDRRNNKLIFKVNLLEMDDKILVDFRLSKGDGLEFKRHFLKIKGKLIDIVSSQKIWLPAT
In words: Chk1 DELFIA Kinase Assay. The note with it: GST-Chk1 kinase assay, bound given in nM. In kind it is biochemical. Here is the method:
Recombinant human Chk1 was expressed as a fusion protein with glutathione S-transferase at the amino-terminus (GST-Chk1) using standard baculovirus vectors and (Bac-to-Bac®) insect cell expression system purchased from GIBCO™ Invitrogen. Recombinant protein expressed in insect cells was purified using glutathione sepharose (Amersham Biotech) using standard procedures described by the manufacturer.
Chk1 DELFIA® Kinase Assay:
Assays (25 μL) utilized 2 nM GST-Chk1 containing 10 mM Tris, pH 7.5, 20% glycerol, 50 mM sodium chloride (NaCl), 0.01% Surfact-Amps® 20, 1 μM peptide stubstrate (Biotin-GLYRSPSMPEN-amide) (SEQ ID NO: 2), 01.% BSA, 2 mM DTT, 4% DMSO, 600 μM ATP, 10 mM MgCl2 and reacted for 50 minutes at room temperature. Reactions were terminated with 100 μL of Stop buffer containing 1% BSA, 10 mM Tris, pH 8.0, 150 mM NaCl, 100 mM EDTA. Stopped reactions (100 μL) were transferred to 96 well NeutrAvidin plates (Pierce) to capture the biotin-peptide substrate during a 30 minute room temperature incubation. Wells were washed and reacted with 100 μL PerkinElmer Wallac Assay Buffer containing 21.5 ng/ml anti-phospho-Ser216-Cdc25c rabbit polyclonal antibody from Cell Signaling Technology (Beverly, Mass.) and 292 ng/ml europium labeled anti-rabbit-IgG for 1 hour at room temperature. Wells were washed and europium released from the bound antibody by addition of Enhancement Solution (100 μL) (PerkinElmer Wallac) and detected using a Perkin Elmer Wallac Envison™ 2100 multilabel reader using standard manufacturer settings.
`CCn1c(=O)c2c(C)[nH]nc2c2cc(C#CCN3[C@H](C)CC[C@H]3C)ccc21` (racemic) [Compound I-2, 8-{3-[(2S,5S)-2,5-dimethylpyrrolidin-1-yl]prop-1-yn-1-yl}-5-ethyl-3-methyl-2,5-dihydro-4H-pyrazolo[4,3-c]quinolin-4-one]: the half-maximal inhibitory concentration (IC50) was less than 500 nM.

As to `CCn1c(=O)c2c(C)[nH]nc2c2cc(/C=C/CN3[C@@H](C)CC[C@@H]3C)ccc21` (racemic) [Compound I-40, 8-{(1E)-3-[(2S,5S)-2,5-dimethylpyrrolidin-1-yl]prop-1-en-1-yl}-5-ethyl-3-methyl-2,5-dihydro-4H-pyrazolo[4,3-c]quinolin-4-one], the IC50 is less than 500 nM.

On to `CCN(CC)CC#Cc1ccc2c(c1)c1n[nH]c(C)c1c(=O)n2CC` [Compound I-1, 8-[3-(diethylamino)prop-1-yn-1-yl]-5-ethyl-3-methyl-2,5-dihydro-4H-pyrazolo[4,3-c]quinolin-4-one], for which the half-inhibitory concentration (IC50) is less than 500 nM.

For `CCn1c(=O)c2c(C)[nH]nc2c2cc(C#CCN3[C@H](C)CC[C@@H]3C)ccc21` [Compound I-3, 8-{3-[(2R,5S)-2,5-dimethylpyrrolidin-1-yl]prop-1-yn-1-yl}-5-ethyl-3-methyl-2,5-dihydro-4H-pyrazolo[4,3-c]quinolin-4-one], the IC50 is less than 500 nM.

For the compound `Cc1[nH]nc2c1c(=O)n(CC(F)F)c1ccc(C#CCN3CCCC3)cc21` [Compound I-4, 5-(2,2-difluoroethyl)-3-methyl-8-(3-pyrrolidin-1-ylprop-1-yn-1-yl)-2,5-dihydro-4H-pyrazolo[4,3-c]quinolin-4-one], the concentration for half-maximal inhibition (IC50) is less than 500 nM.

On to `COCCn1c(=O)c2c(C)[nH]nc2c2cc(C#CCN3CCCC3)ccc21` [Compound I-5, 5-(2-methoxyethyl)-3-methyl-8-(3-pyrrolidin-1-ylprop-1-yn-1-yl)-2,5-dihydro-4H-pyrazolo[4,3-c]quinolin-4-one], for which the IC50 was less than 500 nM.

For `Cc1[nH]nc2c1c(=O)n(CC1CC1)c1ccc(C#CCN3CCCC3)cc21` [Compound I-6, 5-(cyclopropylmethyl)-3-methyl-8-(3-pyrrolidin-1-ylprop-1-yn-1-yl)-2,5-dihydro-4H-pyrazolo[4,3-c]quinolin-4-one], the IC50 was less than 500 nM.

`CCn1c(=O)c2c(C)[nH]nc2c2cc(C#CCN3CCOCC3)ccc21` [Compound I-7, 5-ethyl-3-methyl-8-(3-morpholin-4-ylprop-1-yn-1-yl)-2,5-dihydro-4H-pyrazolo[4,3-c]quinolin-4-one]: the IC50 is less than 500 nM.

With `CCn1c(=O)c2c(C)[nH]nc2c2cc(C#CCN3CCN(C)CC3)ccc21` [Compound I-8, 5-ethyl-3-methyl-8-[3-(4-methylpiperazin-1-yl)prop-1-yn-1-yl]-2,5-dihydro-4H-pyrazolo[4,3-c]quinolin-4-one], the IC50 was less than 500 nM.

Take `CCn1c(=O)c2c(C)[nH]nc2c2cc(C#CCN3CCCCC3)ccc21` [Compound I-9, 5-ethyl-3-methyl-8-(3-piperidin-1-ylprop-1-yn-1-yl)-2,5-dihydro-4H-pyrazolo[4,3-c]quinolin-4-one]: the IC50 is less than 500 nM.

Consider `Cc1[nH]nc2c1c(=O)n(CCF)c1ccc(C#CCN3CCCC3)cc21` [Compound I-10, 5-(2-fluoroethyl)-3-methyl-8-(3-pyrrolidin-1-ylprop-1-yn-1-yl)-2,5-dihydro-4H-pyrazolo[4,3-c]quinolin-4-one], for which the IC50 was less than 500 nM.

Take `CCn1c(=O)c2c(C)[nH]nc2c2cc(C#CCN(C)C)ccc21` [Compound I-11, 8-[3-(dimethylamino)prop-1-yn-1-yl]-5-ethyl-3-methyl-2,5-dihydro-4H-pyrazolo[4,3-c]quinolin-4-one]: the IC50 is less than 500 nM.

Regarding `Cc1[nH]nc2c1c(=O)n(C)c1ccc(C#CCN3CCCC3)cc21` [Compound I-12, 3,5-dimethyl-8-(3-pyrrolidin-1-ylprop-1-yn-1-yl)-2,5-dihydro-4H-pyrazolo[4,3-c]quinolin-4-one], the IC50 is less than 500 nM.

For the compound `Cc1[nH]nc2c1c(=O)[nH]c1ccc(C#CCN3CCCC3)cc12` [Compound I-13, 3-methyl-8-(3-pyrrolidin-1-ylprop-1-yn-1-yl)-2,5-dihydro-4H-pyrazolo[4,3-c]quinolin-4-one], the IC50 is less than 500 nM.

For the compound `CCn1c(=O)c2c(CCOC)[nH]nc2c2cc(C#CCN3CCCC3)ccc21` [Compound I-14, 5-ethyl-3-(2-methoxyethyl)-8-(3-pyrrolidin-1-ylprop-1-yn-1-yl)-2,5-dihydro-4H-pyrazolo[4,3-c]quinolin-4-one], the IC50 is less than 500 nM.

Regarding `CCn1c(=O)c2c(C)[nH]nc2c2cc(C#CC(C)(C)N)ccc21` [Compound I-15, 8-(3-amino-3-methylbut-1-yn-1-yl)-5-ethyl-3-methyl-2,5-dihydro-4H-pyrazolo[4,3-c]quinolin-4-one], the IC50 was less than 500 nM.

`Cc1[nH]nc2c1c(=O)n(CC(C)C)c1ccc(C#CCN3CCCC3)cc21` [Compound I-16, 5-isobutyl-3-methyl-8-(3-pyrrolidin-1-ylprop-1-yn-1-yl)-2,5-dihydro-4H-pyrazolo[4,3-c]quinolin-4-one]: the IC50 was less than 500 nM.

With `Cc1[nH]nc2c1c(=O)n(CCO)c1ccc(C#CCN3CCCC3)cc21` [Compound I-17, 5-(2-hydroxyethyl)-3-methyl-8-(3-pyrrolidin-1-ylprop-1-yn-1-yl)-2,5-dihydro-4H-pyrazolo[4,3-c]quinolin-4-one], the half-inhibitory concentration (IC50) is less than 500 nM.

As for `Cc1[nH]nc2c1c(=O)n(CCCO)c1ccc(C#CCN3CCCC3)cc21` [Compound I-18, 5-(3-hydroxypropyl)-3-methyl-8-(3-pyrrolidin-1-ylprop-1-yn-1-yl)-2,5-dihydro-4H-pyrazolo[4,3-c]quinolin-4-one], the IC50 was less than 500 nM.

For `CCCn1c(=O)c2c(C)[nH]nc2c2cc(C#CCN3CCCC3)ccc21` [Compound I-19, 3-methyl-5-propyl-8-(3-pyrrolidin-1-ylprop-1-yn-1-yl)-2,5-dihydro-4H-pyrazolo[4,3-c]quinolin-4-one], the IC50 was less than 500 nM.

Take `Cc1[nH]nc2c1c(=O)n(CC(F)(F)F)c1ccc(C#CCN3CCCC3)cc21` [Compound I-20, 3-methyl-8-(3-pyrrolidin-1-ylprop-1-yn-1-yl)-5-(2,2,2-trifluoroethyl)-2,5-dihydro-4H-pyrazolo[4,3-c]quinolin-4-one]: the IC50 was less than 500 nM.

On to `CCn1c(=O)c2c(C)[nH]nc2c2cc(C#CCN3CCCC3)ccc21` [Compound I-21, 5-ethyl-3-methyl-8-(3-pyrrolidin-1-ylprop-1-yn-1-yl)-2,5-dihydro-4H-pyrazolo[4,3-c]quinolin-4-one], for which the IC50 was less than 500 nM.

For the compound `C#Cc1ccc2c(c1)c1n[nH]c(C)c1c(=O)n2C` [Compound I-22, 8-ethynyl-3,5-dimethyl-2,5-dihydro-4H-pyrazolo[4,3-c]quinolin-4-one], the IC50 is less than 500 nM.

As to `Cc1[nH]nc2c1c(=O)n(C)c1ccc(C#CCN)cc21` [Compound I-23, 8-(3-aminoprop-1-yn-1-yl)-3,5-dimethyl-2,5-dihydro-4H-pyrazolo[4,3-c]quinolin-4-one], the IC50 was less than 500 nM.

For `Cc1[nH]nc2c1c(=O)n(C)c1ccc(C#CCO)cc21` [Compound I-24, 8-(3-hydroxyprop-1-yn-1-yl)-3,5-dimethyl-2,5-dihydro-4H-pyrazolo[4,3-c]quinolin-4-one], the IC50 is less than 500 nM.

With `CCn1c(=O)c2c(C)[nH]nc2c2cc(/C=C/CN3CCCC3)ccc21` [Compound I-25, 5-ethyl-3-methyl-8-[(1E)-3-pyrrolidin-1-ylprop-1-en-1-yl]-2,5-dihydro-4H-pyrazolo[4,3-c]quinolin-4-one], the IC50 is less than 500 nM.

Turning to `CCn1c(=O)c2c(C)[nH]nc2c2cc(C#CCN3CCC(F)(F)C3)ccc21` [Compound I-30, 8-[3-(3,3-difluoropyrrolidin-1-yl)prop-1-yn-1-yl]-5-ethyl-3-methyl-2,5-dihydro-4H-pyrazolo[4,3-c]quinolin-4-one], the IC50 was less than 500 nM.

On to `CCn1c(=O)c2c(C)[nH]nc2c2cc(C#CCN3CCC3)ccc21` [Compound I-31, 8-(3-azetidin-1-ylprop-1-yn-1-yl)-5-ethyl-3-methyl-2,5-dihydro-4H-pyrazolo[4,3-c]quinolin-4-one], for which the IC50 is less than 500 nM.

On to `CCn1c(=O)c2c(C)[nH]nc2c2cc(C#CCN(C(C)C)C(C)C)ccc21` [Compound I-36, 8-[3-(diisopropylamino)prop-1-yn-1-yl]-5-ethyl-3-methyl-2,5-dihydro-4H-pyrazolo[4,3-c]quinolin-4-one], for which the IC50 was less than 500 nM.

Source of the values: patent publication US20060035920A1, “Chk-1 inhibitors” (Millennium Pharmaceuticals, Inc., priority 2004, published 2006).
